From patent US8338450B2, “Compounds as dipeptidyl peptidase IV (DPP IV) inhibitors” (Lupin Limited, priority 2007, dated 2012) come the findings set out here.

Where a name gives a salt, the structure may show the parent alone. Read-outs that look alike come from different tables or passages of the source.

For this assay, the target named is T1, human recombinant DPP-IV (Homo sapiens, UniProt P27487).
T1 construct: purchased R&D Systems, USA (or produced in-house)
In words: Inhibition of human recombinant DPP-IV (Gly-Pro-AMC hydrolysis, fluorometric). To be noted: for IC50: human recombinant DPP-IV, 50 μM Gly-Pro-AMC, 30 min at 30° C.; for inhibition at 0.01 µM: read-out: % inhibition at 10 nM; for % inhibition at 100 nM: compound 100 nM. It is filed as biochemical. How it is done:
Inhibition of Human Recombinant DPP-IV
The proteolytic activity of human recombinant DPP-IV was determined by following the hydrolysis of Gly-Pro-7-amino-4-methylcoumarin (Gly-Pro-AMC) and the fluorometric quantitation of the liberated AMC. Assays were routinely carried out in 96-well flat-bottom black microwell plates. The reaction mixture (100 μl) contained 10 ng of human recombinant DPP-IV enzyme (produced in-house or procured from R&D Systems, USA) in the assay buffer (25 mM Tris-HCl, pH 7.4, 140 mM NaCl, 10 mM KCl and 0.1 mg/ml BSA) and 50 μM Gly-Pro-AMC. After incubation of assay plates at 30° C. for 30 min, the hydrolysis of Gly-Pro-AMC was monitored in a fluorescence microplate reader (Molecular Devices SpectraMax M5), with excitation and emission wavelengths set at 360 nm and 460 nm, respectively.
The inhibition of DPP-IV activity by test compounds was routinely performed by preincubating the enzyme with test compound (10 and 100 nM for primary screening and 8 concentrations from 0.1 to 1000 nM for the dose-response study) or vehicle (0.01% DMSO) for 15 min at 30° C., in a total volume of 90 μl. Test compounds were dissolved in DMSO at a concentration of 10 mM and serially diluted further in assay buffer. The enzyme reaction was initiated by the addition of Gly-Pro-AMC, followed by incubation of assay plates for 30 min at 30° C. and the liberated AMC was measured as described above. A known inhibitor of DPP-IV (positive control) was always included in the assay. Test compounds at various concentrations were always evaluated in duplicate, along with substrate blanks, vehicle controls and positive controls.
The results are expressed as percent inhibition of the enzyme activity relative to vehicle controls. Dose-response studies were conducted for those compounds exerting ≧50% inhibition of activity at 10 nM in primary screening. IC50, defined as the inhibitor concentration which caused a 50% decrease of the activity under assay conditions, was computed using GraphPad Prism software, version 5.0.
The DPP-IV inhibition data (expressed either as IC50 in nanomolar or percent inhibition at a particular compound concentration) is presented in Table 1.

Setting [1] is: compound 10 nM, relative to vehicle controls.

T1 sequence (P27487 whole entry): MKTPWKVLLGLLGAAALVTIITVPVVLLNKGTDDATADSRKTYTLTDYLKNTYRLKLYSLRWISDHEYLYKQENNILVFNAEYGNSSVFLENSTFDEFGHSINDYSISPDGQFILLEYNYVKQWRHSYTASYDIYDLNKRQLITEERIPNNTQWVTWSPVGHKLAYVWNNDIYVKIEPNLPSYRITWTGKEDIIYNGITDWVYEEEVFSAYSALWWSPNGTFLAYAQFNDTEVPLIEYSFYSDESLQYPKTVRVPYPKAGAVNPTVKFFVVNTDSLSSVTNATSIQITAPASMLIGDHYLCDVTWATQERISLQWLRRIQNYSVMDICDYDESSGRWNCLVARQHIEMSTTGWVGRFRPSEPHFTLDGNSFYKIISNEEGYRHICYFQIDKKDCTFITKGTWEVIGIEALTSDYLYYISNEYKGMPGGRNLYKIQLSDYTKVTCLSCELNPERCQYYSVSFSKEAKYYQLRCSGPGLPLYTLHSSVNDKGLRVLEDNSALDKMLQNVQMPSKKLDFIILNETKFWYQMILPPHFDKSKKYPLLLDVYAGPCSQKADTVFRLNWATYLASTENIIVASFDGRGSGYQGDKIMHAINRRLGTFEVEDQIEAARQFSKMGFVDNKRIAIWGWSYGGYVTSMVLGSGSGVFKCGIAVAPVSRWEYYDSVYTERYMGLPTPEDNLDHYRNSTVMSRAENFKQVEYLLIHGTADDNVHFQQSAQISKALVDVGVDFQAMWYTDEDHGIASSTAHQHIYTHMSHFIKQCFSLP

As to `N#C[C@@H]1C[C@@H]2C[C@@H]2N1C(=O)[C@@H](N)C1CC2CCC(C1)N2CC1CCCCC1.O=C(O)C(F)(F)F` (stereo partly drawn) [Compound 48, (1S,3S,5S)-2-{(2S)-2-Amino-2-[8-(cyclohexylmethyl)-8-aza-bicyclo[3.2.1]oct-3-yl]-exo-ethanoyl}-2-azabicyclo-[3.1.0]hexane-3-carbonitrile trifluoroacetic acid salt], the “% inhibition at 10 nM” value under setting [1] stood at 22% inhibition at 10 nM. `N#C[C@@H]1C[C@H](F)CN1C(=O)[C@@H](N)C1CC2CCC(C1)N2C(=O)c1cc(F)ccc1F` (stereo partly drawn) [Compound 17, (2S,4S)-1-{(2S)-2-Amino-2-[8-(2,5-difluorobenzoyl)-8-aza-bicyclo[3.2.1]oct-3-yl]-exo-ethanoyl}-4-fluoro-pyrrolidin-2-carbonitrile trifluoroacetic acid salt]: the IC50 (commonly the concentration that inhibits the measured activity by half) was 2.4 nM.

As to `N#C[C@@H]1CCCN1C(=O)[C@@H](N)C1CC2CCC(C1)N2C(=O)C12CC3CC(CC(C3)C1)C2` (stereo partly drawn) [Compound 3, (2S)-1-{(2S)-2-Amino-2-[8-(adamantane-1-carbonyl)-8-aza-bicyclo[3.2.1]oct-3-yl]-exo-ethanoyl}-pyrrolidin-2-carbonitrile trifluoroacetic acid salt], the half-inhibitory concentration (IC50) is 6.67 nM.

Regarding `N#C[C@H]1CC[C@@H](C(=O)OCc2ccccc2)N1C(=O)[C@@H](N)C1CC2CCC(C1)N2C(=O)c1ccc(C(F)(F)F)cc1` (stereo partly drawn) [Compound 18, Benzyl-(2S,5R)-1-{(2S)-2-amino-2-[8-(4-trifluoromethyl-benzoyl)-8-aza-bicyclo[3.2.1]-oct-3-yl]-exo-ethanoyl}-5-cyano pyrrolidin-2-carboxylate trifluoroacetic acid salt], under setting [1], the inhibition (usually the drop in the measured response relative to a control, in per cent) at 0.01 µM stood at 1.11%.

Take `N#C[C@@H]1CCCN1C(=O)[C@@H](N)C1CC2CCC(C1)N2C(=O)c1ccncc1` (stereo partly drawn) [Compound 4, (2S)-1-{(2S)-2-Amino-2-[8-(pyridine-4-carbonyl)-8-aza-bicyclo[3.2.1]oct-3-yl]-exo-ethanoyl}-pyrrolidin-2-carbonitrile trifluoroacetic acid salt]: the half-maximal inhibitory concentration (IC50) was determined as 1.03 nM. For the compound `N[C@H](C(=O)N1CCSC1)C1CC2CCC(C1)N2C(=O)c1ccc(C(F)(F)F)cc1` (stereo partly drawn) [Compound 21, 3-{(2S)-2-Amino-2-[8-(4-trifluoromethyl-benzoyl)-8-aza-bicyclo[3.2.1]-oct-3-yl]-exo-ethanoyl}-1,3-thiazolidin trifluoroacetic acid salt], the IC50 stood at 17.9 nM. The same measure, in the same setting: for `N#C[C@@H]1C[C@@H]2C[C@@H]2N1C(=O)[C@@H](N)C1CC2CCC(C1)N2C(=O)c1cccnc1F` (stereo partly drawn) [Compound 32, (1S,3S,5S)-2-{(2S)-2-Amino-2-[8-(2-fluoropyridine-3-carbonyl)-8-aza-bicyclo[3.2.1]oct-3-yl]-exo-ethanoyl}-2-azabicyclo[3.1.0]hexane-3-carbonitrile trifluoroacetic acid salt] the value was 6.84 nM. Turning to `N#C[C@@H]1C[C@@H]2C[C@@H]2N1C(=O)[C@@H](N)C1CC2CCC(C1)N2Cc1ccncc1.O=C(O)C(F)(F)F` (stereo partly drawn) [Compound 55, (1S,3S,5S)-2-{(2S)-2-Amino-2-[8-(pyridin-4-yl-methyl)-8-aza-bicyclo[3.2.1]oct-3-yl]-exo-ethanoyl}-2-azabicyclo[3.1.0]hexane-3-carbonitrile trifluoroacetic acid salt], the “% inhibition at 10 nM” value under setting [1] was 45% inhibition at 10 nM. Regarding `N#C[C@@H]1CCCN1C(=O)[C@@H](N)C1CC2CCC(C1)N2` (stereo partly drawn) [Compound 8, (2S)-1-{(2S)-2-Amino-2-[8-aza-bicyclo[3.2.1]oct-3-yl]-exo-ethanoyl}-pyrrolidin-2-carbonitrile trifluoro acetic acid salt], the IC50 came to 6.84 nM.

Consider `N#C[C@H]1CSCN1C(=O)[C@@H](N)C1CC2CCC(C1)N2C(=O)c1ccc(C(F)(F)F)cc1` (stereo partly drawn) [Compound 20, (4S)-3-{(2S)-2-Amino-2-[8-(4-trifluoromethyl-benzoyl)-8-aza-bicyclo[3.2.1]oct-3-yl]-exo-ethanoyl}-thiazolidin-4-carbonitrile trifluoroacetetic acid salt], for which the IC50 turned out to be 2.8 nM. On to `NC(=O)[C@@H]1CCCN1C(=O)[C@@H](N)C1CC2CCC(C1)N2C(=O)c1ccc(C(F)(F)F)cc1.O=C(O)C(F)(F)F` (stereo partly drawn) [Compound 12, (2S)-1-{(2S)-2-amino-2-[8-(4-trifluoromethyl-benzoyl)-8-aza-bicyclo[3.2.1]-oct-3-yl]-exo-ethanoyl}-pyrrolidin-2-carboxamide trifluoroacetic acid salt], for which, for the setting “compound 1000 nM, relative to vehicle controls”, the “% inhibition at 1000 nM” value is reported as 30% inhibition at 1000 nM. Regarding `N#C[C@@H]1C[C@@H]2C[C@@H]2N1C(=O)[C@@H](N)C1CC2CCC(C1)N2C(=O)c1cccnc1` (stereo partly drawn) [Compound 33, (1S,3S,5S)-2-{(2S)-2-Amino-2-[8-(pyridine-3-carbonyl)-8-aza-bicyclo[3.2.1]oct-3-yl]-exo-ethanoyl}-2-azabicyclo[3.1.0]hexane-3-carbonitrile di trifluoroacetic acid salt], the IC50 is 9.43 nM.

For `N#C[C@@H]1C[C@@H]2C[C@@H]2N1C(=O)[C@@H](N)C1CC2CCC(C1)N2C(=O)C12CC3CC(CC(C3)C1)C2.O=C(O)C(F)(F)F` (stereo partly drawn) [Compound 43, (1S,3S,5S)-2-{(2S)-2-Amino-2-[8-(adamantane-1-carbonyl)-8-aza-bicyclo[3.2.1]oct-3-yl]-exo-ethanoyl}-2-azabicyclo[3.1.0]hexane-3-carbonitrile trifluoroacetic acid salt], the “% inhibition at 100 nM” value (relative to vehicle controls) turned out to be 49% inhibition at 100 nM. Take `C#C[C@H]1CC[C@@H](C#N)N1C(=O)[C@@H](N)C1CC2CCC(C1)N2C(=O)c1ccncc1F` (stereo partly drawn) [Compound 65, (2S,5R)-1-{(2S)-2-Amino-2-[8-(3-fluoropyridin-4-carbonyl)-8-aza-bicyclo[3.2.1]oct-3-yl]-exo-ethanoyl}-5-ethynyl-pyrrolidin-2-carbonitrile trifluoroacetic acid salt]: the IC50 amounted to 7.1 nM.

In the case of `C#C[C@H]1CC[C@@H](C#N)N1C(=O)[C@@H](N)C1CC2CCC(C1)N2C(=O)c1ccncc1` (stereo partly drawn) [Compound 64, (2S,5R)-1-{(2S)-2-Amino-2-[8-(pyridin-4-carbonyl)-8-aza-bicyclo[3.2.1]oct-3-yl]-exo-ethanoyl}-5-ethynyl-pyrrolidin-2-carbonitrile di trifluoro acetic acid salt], the IC50 is 11 nM. Regarding `N[C@H](C(=O)N1CC(F)C1)C1CC2CCC(C1)N2C(=O)c1ccncc1F` (stereo partly drawn) [Compound 62, {(2S)-2-Amino-2-[8-(3-fluoropyridine-4-carbonyl)-8-aza-bicyclo[3.2.1]-oct-3-yl]-exo-ethanoyl}-3-fluoroazetidine trifluoroacetic acid salt], the inhibition at 0.01 µM is 12%. `N#C[C@H]1C[C@H]2C[C@H]2N1C(=O)[C@H](N)C1CC2CCC(C1)N2C(=O)c1cnccn1.O=C(O)C(F)(F)F` (stereo partly drawn) [Compound 38, (1R,3R,5R)-2-{(2R)-2-Amino-2-[8-(pyrazin-2-carbonyl)-8-aza-bicyclo[3.2.1]oct-3-yl]-exo-ethanoyl}-2-azabicyclo[3.1.0]hexane-3-carbonitrile trifluoroacetic acid salt]: the “% inhibition at 100 nM” value (relative to vehicle controls) was 16% inhibition at 100 nM. For the compound `N#C[C@H]1C[C@H]2C[C@H]2N1C(=O)[C@@H](N)C1CC2CCC(C1)N2C(=O)c1cnccn1.O=C(O)C(F)(F)F` (stereo partly drawn) [Compound 37, (1R,3R,5R)-2-{(2S)-2-Amino-2-[8-(pyrazine-2-carbonyl)-8-aza-bicyclo[3.2.1]oct-3-yl]-exo-ethanoyl}-2-azabicyclo[3.1.0]hexane-3-carbonitrile trifluoroacetic acid salt], the “% inhibition at 10 nM” value under setting [1] is listed as 7% inhibition at 10 nM. Take `N#C[C@@H]1C[C@@H]2C[C@@H]2N1C(=O)[C@@H](N)C1CC2CCC(C1)N2CCC(F)(F)F.O=C(O)C(F)(F)F` (stereo partly drawn) [Compound 47, (1S,3S,5S)-2-{(2S)-2-Amino-2-[8-(3,3,3-trifluoropropyl)-8-aza-bicyclo[3.2.1]oct-3-yl]-exo-ethanoyl}-2-azabicyclo[3.1.0]hexane-3-carbonitrile trifluoroacetic acid salt]: the “% inhibition at 10 nM” value under setting [1] amounted to 29% inhibition at 10 nM. In the case of `N[C@H](C(=O)N1[C@H](C(=O)O)C[C@@H]2C[C@@H]21)C1CC2CCC(C1)N2C(=O)c1ccc2c(c1)OCO2` (stereo partly drawn) [Compound 46, (1S,3S,5S)-2-{(2S)-2-Amino-2-[8-(benzo[1,3]-dioxole-5-carbonyl)-8-aza-bicyclo[3.2.1]-oct-3-yl]-exo-ethanoyl}-2-azabicyclo[3.1.0]hexane-3-carboxylic acid hydrochloride], where the note is “compound 1000 nM, relative to vehicle controls, read-out: % inhibition at 1000 nM”, the inhibition at 1 µM is 13%.
